# Test results taken from patent publication US7659252B2, “Transdermal delivery peptides and method of use thereof” (Novomed Technologies, Inc. (Shanghai), priority 2005, dated 2010).
# Legend:
# male Sprague-Dawley rats [1] = test: Transdermal PT-141 delivery: penile erections, chasing, mounting; assay type: in vivo, rat; conditions: cream, 1 h observation
# Method: (§1) All behavioral studies were performed from 9:00 am to 4:00 pm at 24±1° C. While the animals were anesthetized with Urethane, the hair in an area of approximately 3.0 cm×3.0 cm in the interscapular region was carefully trimmed using scissors, with caution not to damage the skin (rats with any visible sign of skin damage were not used). Rats were allowed to recover for at least 24 hours before the experiments. One hundred ul cream containing indicated amounts of PT-141 was placed on the exposed skin and spread evenly using the side of a pipet tip.
# Testing rats were divided into four groups with each group contain 6 rats.
# Immediately after administration, rats were placed into individual polystyrene cages (32 cm long, 30 cm wide, 30 cm high) for behavioral observation. […] According to methods described by Berendsen and Broekkamp (1987, Eur. J. Pharmacol. 135(3):279-87), a penile erection was present when the following is observed: repeated pelvic thrust immediately followed by an upright position, an emerging engorged penis which the rat licks while eating the ejaculate. In addition, chasing was observed when the male moves forward along the female's side with its mouth licking the female's genital area, while mounting was present when the male's both front feet are off the ground and plant on the female's rump without ejaculation (Naby et al., 1992, Horm. Behav. 26:24; Randy et al., 1995, Nature 378:383).
# hair follicles = test: Microscopy of skin sections: hair follicle penetration; assay type: in vivo, rat; conditions: for follicular penetration of insulin-FITC: 10 μg insulin-FITC co-administered with enhancer, 2 h, abdominal skin
# Method: In particular, Insulin-FITC (Xi-an Huacheng, Xi-an, China) was dissolved in a small amount of DMF and subsequently diluted in saline for topical administration (final DMF concentration was <0.2%). […] After 2 hours the skin was carefully cleaned by 70% isopropyl alcohol and harvested by dissecting. The isolated skin was fixed with ice-cold 4% paraformaldehyde in 0.1 M phosphate buffer (PH 7.4) overnight. Following several washes with 10 mM phosphate-buffered saline (PBS PH7.4), skin samples were immersed in PBS containing 4.5% sucrose for 24 hours and then dehydrated in 10 mM PBS containing 30% sucrose till deposition. Floating horizontal and vertical sections with a thickness of 20 μm were obtained on a freezing microtome (CM1900 LEICA, Heidelberger, Nussloch, Germany). Cryosections were mounted onto poly-L-lysine-coated glasses, dried at room temperature and enveloped with 10 μl […] Mounting Medium (Vector Laboratories, Burlingame, Calif.). Fluorescence photomicrographs of the sections were obtained with OLYMPUS IX-70 microscope (OLYMPUS, Tokyo, Japan) using a filter set having excitation and emission length at 490-495 nm and 520-530 nm, respectively.
# male Sprague-Dawley rats [2] = test: Transdermal apomorphine delivery, APO-induced penile erections; assay type: in vivo, rat; conditions: for effect on APO transdermal delivery (APO-induced penile erections): peptide 2.0 mg/kg + APO 0.8 mg/kg, cream, 2 h observation
# Method: as §1, with “apomorphine (APO)” for “PT-141”
# Immediately after administration, rats were placed into individual polystyrene cages (32 cm long, 30 cm wide, 30 cm high) for behavioral observation. […] According to methods described by Berendsen and Broekkamp (1987, Eur. J. Pharmacol. 135(3):279-87), a penile erection was present when the following is observed: repeated pelvic thrust immediately followed by an upright position, an emerging engorged penis which the rat licks while eating the ejaculate.
# [3] = tested on: streptozotocin-induced diabetic rats; test: Transdermal insulin delivery: serum insulin and blood glucose; assay type: in vivo, rat; conditions: for transdermal activity for delivering insulin compared to TD-1 / Blood Glucose Mean: 500 μg peptide + 70 μg insulin topical; for transdermal activity for delivering insulin compared to TD-1: 5 hrs; for Blood Glucose Mean: 5 hr value as % of the 0 hr value
# Method: Insulin delivery: In particular, male Wistar rats were given intraperitoneal injection of straptozotocin (60 mg/kg; Sigma-Aldrich, St. Louis, […].) to make these rats in diabetic states. Seven to 10 days post injection blood glucose level was measured using One-Touch Ultra Glucometer (LifeScan, Milpitas, Calif.). The straptozocin-induced (SD-induced) diabetic rats with blood glucose level of over 20 mmol/l (normal rats are between 4 and 6 mmol/l) were selected and randomly assigned to different treatment groups, with 6 rats for each group. […] The SLA/PP is a chemical enhancer combination recently identified from high-throughput screening (Karande et al., […], Nature Biotech. 22:192). Moreover, in other transdermal treatment groups, 100 μl saline was given to each rat in that group. For the subcutaneous treatment group, 14 μg of insulin per rat was injected.
# Blood was drawn from the rat tail vein at these time points and assayed for blood glucose as described above and serum insulin by radioimmunoassay (Immunotech, Czech).
# Blood glucose and serum insulin were measured before and 5 hrs. after the administration as described above.
# Male Wistar rats = test: Phage delivery across trimmed abdominal skin, phage titre in tail-vein blood; assay type: in vivo, rat
# Method: Phage delivery: Male Wistar rats (180 g to 220 g) were housed at a constant temperature (22° C.) and relative humidity (60%) with a fixed 12 hr. light/dark cycle, and free access to food and water. While the animals were anesthetized with Vrethane (5 ml/kg of 20% solution), the hair in an area of approximately 3.0 cm×3.0 cm on the abdomen was carefully trimmed using scissors, with caution not to damage the skin (rats with any visible sign of skin damage were not used). […] One hour after the phage administration blood was withdrawn from the tail vein and immediately assayed for phage titre according to manufacturer's protocol.
# ^125I-insulin = molecular target: T1, ^125I-insulin (Sus scrofa, UniProt P01315); test: Direct interaction between coated TD-1 and ^125I-insulin; assay type: binding, porcine; conditions: up to 1 mg TD-1 per well
# T1 construct: purchased Beijing Atom HighTech
# Method: After extensive washing with PBST (PBS+0.1% Tween-20), radioactivity was measured with Gamma Radioimmunoassay Counter.
# insulin = molecular target: T2, insulin (Sus scrofa, UniProt P01315); test: ELISA direct interaction between TD-1 and insulin (incl. reverse scheme); assay type: binding, porcine
# T2 construct: pharmaceutical-grade (>98%, 30 IU/mg) porcine insulin; purchased Xuzhou Pharmaceuticals
# Method: Insulin (100 μg) and a guinea pig anti-porcine insulin antibody (Atom High-Tech, used at 1:1000 dilution), in 100 μl of PBS, was added to each well and incubated for 2 hrs. at 37° C. After washing 6× with PBST, the plate was incubated with 1:2000 dilution of anti-guinea pig IgG conjugated with HRP (Chang-Dao Biotechnology Co. Ltd., Shanghai, China) for 1 hr. at 37° C. The plate was washed 6× with PBST, followed by the addition of 100 μl/well of TMB substrate. After incubation at room temperature for 10 mins and additional of stop solution (1 M H2SO4), absorbance was read at 450/630 nm in an ELISA reader. As a positive control, 1 ng to 1 μg of insulin was coated directly on the plates and was detected by the same procedure as described above. In areverse interaction scheme, ELISA plate wells were coated with 1 μg to 1 mg of insulin, blocked with BSA, incubated with TD-1-AngII fusion peptide (100 μg per well), incubated with rabbit polyclonal antibody against human angiotensin II (Atom High-Tech, used at 1:1000) and 1:2000 of anti-rabbit IgG conjugated with HRP (Zhong Shan Golden Bridge Biotechnology, Beijing, China), and finally assayed by TMB color reactionm using the same protocol as described above. The control for this reverse scheme experiment used 1 μg of TD-1-AngII coated directly to the wells.
# [4] = DLS measurements of insulin with or without TD-1; assay type: physicochemical
# Method: The solutions were transferred to a centrifuge tube and spun for 10 min at 10000 rpm. 40 μl of the supernatant were filtered by ANODISC™ membrane filter with a pore size of 0.02 μm (Whatman International, Maidstone, UK) and taken for DLS measurement using DynaPro™ MS 800 (Wyatt technology Corporation/Protein Solutions, Santa Barbara, Calif.).
# [5] = PT-141 160 μg/kg + peptide 240 μg/kg
# [6] = peptide topically co-administered with PH-1
# [7] = insulin-FITC 10 μg + TD-1, time course
# [8] = 500 μg TD-1 + 70 μg porcine insulin, topical
# [9] = co-administered with 70 μg insulin, 5 hours
# [10] = co-administered TD-1 fixed at 500 μg, 5 hours
# T2 sequence (P01315 25-54 limits assumed): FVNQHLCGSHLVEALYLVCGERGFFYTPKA
# T2 sequence (P01315 88-108 limits assumed): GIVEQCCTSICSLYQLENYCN
# T1 sequence (P01315 25-54 limits assumed): as the sequence (P01315 25-54 limits assumed) above
molecule,measurement,setting,value
"CCCC[C@H](NC(C)=O)C(=O)N[C@H]1CC(=O)NCCCC[C@@H](C(=O)O)NC(=O)[C@H](Cc2c[nH]c3ccccc23)NC(=O)[C@H](CCCNC(=N)N)NC(=O)[C@@H](Cc2ccccc2)NC(=O)[C@H](Cc2c[nH]cn2)NC1=O [PT-141, Ac-Nle-Asp-His-D-Phe-Arg-Trp-Lys-OH]","numbers of PEs, chasing and mounting",male Sprague-Dawley rats [1]; PT-141 160 μg/kg alone,did not significantly increase
"ACNATLPHQCG [AP-1, reference compound]",follicular penetration of insulin-FITC,hair follicles,did not lead to follicular penetration
same,effect on APO transdermal delivery (APO-induced penile erections),male Sprague-Dawley rats [2],no effect
same,elevating serum insulin and lowering blood glucose levels,"[3]; control enhancer co-administered with 70 μg insulin, topical",ineffective
same,"numbers of PEs, chasing and mounting",male Sprague-Dawley rats [1]; [5],did not significantly increase
same,transdermal activity relative to phage PH-1,Male Wistar rats; 1 hour post topical administration,less than 0.2%
same,effect on transdermal activity of phages carrying the TD-2 peptide (PH-1),Male Wistar rats; [6],no effect
ACSASPSKHCG [TD-24],transdermal activity for delivering insulin compared to TD-1,[3],statistically significant loss of activity
same,Blood Glucose Mean,[3],82.17%
ACSSSASKHCG [TD-3],transdermal activity for delivering insulin compared to TD-1,[3],almost completely loss of activity
same,Blood Glucose Mean,[3],89.80%
ACSSSPAKHCG [TD-6],transdermal activity for delivering insulin compared to TD-1,[3],statistically significant loss of activity
same,Blood Glucose Mean,[3],66.65%
ACSSSPSAHCG [TD-22],transdermal activity for delivering insulin compared to TD-1,[3],statistically significant loss of activity
same,Blood Glucose Mean,[3],85.90%
ACSSSPSDHCG [TD-4],transdermal activity for delivering insulin compared to TD-1,[3],almost completely loss of activity
same,Blood Glucose Mean,[3],89.68%
ACSSSPSKACG [TD-23],transdermal activity for delivering insulin compared to TD-1,[3],statistically significant loss of activity
same,Blood Glucose Mean,[3],81.36%
ACSSSPSKHCG [TD-1],^125I-insulin bound to wells precoated with TD-1,^125I-insulin,No significant radioactivity above the background level
same,follicular penetration of insulin-FITC,hair follicles,penetration of insulin-FITC deep into hair follicles
same,relation of waiting period to extent of follicular penetration of insulin-FITC,"hair follicles; TD-1 5 min, washed, waiting 0-60 min before insulin-FITC",inversely proportional
same,duration of follicular penetration of insulin-FITC,hair follicles; [7],at least 24 hours
same,earliest time follicular penetration of insulin-FITC detectable,hair follicles; [7],30 min
same,time of maximum follicular penetration of insulin-FITC,hair follicles; [7],2 h
same,time at which most PEs occurred,male Sprague-Dawley rats [2]; APO 0.8 mg/kg + TD-1 2.0 mg/kg,during the second hour
same,number of PEs,male Sprague-Dawley rats [2]; TD-1 0.4 mg/kg + APO 0.8 mg/kg,did not significantly increase
same,transdermal-enhancing effect (number of PEs),"male Sprague-Dawley rats [2]; TD-1 0.8, 2.0 and 3.2 mg/kg + APO 0.8 mg/kg",reached maximum
same,effect on APO transdermal delivery (APO-induced penile erections),male Sprague-Dawley rats [2],facilitates transdermal APO delivery
same,direct binding to insulin (conclusion of binding assays),insulin,does not bind insulin directly
same,insulin bound to precoated TD-1,"insulin; wells coated with increasing amounts of TD-1, 100 μg insulin",No significant amount of insulin was found to bind
same,time at which decrease of blood glucose was seen,[3]; [8],2 h
same,time of lowest blood glucose level,[3]; [8],8 h
same,lowest blood glucose level,"[3]; 500 μg TD-1 + 70 μg porcine insulin, topical, at 8 hours",< 25 % of the initial blood glucose level
same,effect on blood glucose or serum insulin level,"[3]; 500 μg TD-1 alone, without insulin, topical",no effect
same,Blood Glucose Mean,[3],38.68%
same,TD-1 amount at which transdermal-enhancing effect reached maximum,[3]; [9],> 500 µg
same,TD-1 amount without significant insulin-elevating and glucose-lowering effect,[3]; [9],< 20 µg
same,"numbers of PEs, chasing and mounting",male Sprague-Dawley rats [1]; [5],significantly increased
same,tested rats in which enhanced transdermal penetration of a control phage was observed,"Male Wistar rats; co-administered with control phage, data not shown",20%
same,amount that completely abolished the transdermal activity of PH-1,Male Wistar rats; [6],over 5 μg
same,effect on transdermal activity of phages carrying the TD-2 peptide (PH-1),Male Wistar rats; [6],dose-dependent manner
ACSSSSSKHCG [TD-10],transdermal activity for delivering insulin compared to TD-1,[3],"only a slight, insignificant decrease in activity"
same,Blood Glucose Mean,[3],53.79%
CSSSPSKHC [TD-2],transdermal activity for delivering insulin compared to TD-1,[3],statistically significant loss of activity
same,Blood Glucose Mean,[3],68.44%
"insulin: pharmaceutical-grade (>98%, 30 IU/mg) porcine insulin (Xuzhou Pharmaceuticals)",duration of insulin-elevating and glucose-lowering effect,"[3]; 14 μg insulin, subcutaneous injection",less than 5 hours
same,insulin amount needed to achieve the maximum response,[3]; [10],≥ 70 µg
same,insulin amount sufficient to significantly enhance serum insulin and lower blood glucose,[3]; [10],35 µg
same,MW-R Mean,"[4]; pH 2.0, saline","14,585 Da"
same,Radius Mean,"[4]; pH 2.0, saline",1.9 nm
same,MW-R Mean,"[4]; pH 2.0, saline, listed as Ins",14585 Da
same,MW-R Mean,"[4]; pH 3.0, saline","20,343 Da"
same,Radius Mean,"[4]; pH 3.0, saline",2.2 nm
same,MW-R Mean,"[4]; pH 3.0, saline, listed as Ins",20343 Da
same,MW-R Mean,"[4]; pH 7.0, saline","32,328 Da"
same,Radius Mean,"[4]; pH 7.0, saline",2.6 nm
same,MW-R Mean,"[4]; pH 7.0, saline, listed as Ins",32328 Da
